For one molecule, Kd results are on record in publication PMC5546605 (PLoS ONE, 2017).

Molecules are shown by their SMILES. A value given as a limit tells only on which side of the number the result lay.

The target in test [1] is T1, cellular prion protein (PrP^C) (Mus musculus, UniProt P04925).
T1 construct: gene Prnp
The test is described as follows: biochemical. The class given is binding.

The target of test [2] is T2, cellular prion protein (PrP^C) (Homo sapiens, UniProt P04156).
T2 construct: gene PRNP
The experiment in a line: biochemical. The class given is binding.

T1 sequence (P04925 23-230 limits assumed): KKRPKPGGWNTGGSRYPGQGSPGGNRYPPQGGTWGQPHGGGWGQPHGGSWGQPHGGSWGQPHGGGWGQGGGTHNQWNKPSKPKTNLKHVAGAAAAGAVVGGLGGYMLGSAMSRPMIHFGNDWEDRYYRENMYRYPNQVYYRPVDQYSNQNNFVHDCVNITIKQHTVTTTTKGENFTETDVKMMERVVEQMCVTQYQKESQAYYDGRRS

One may read the Kd as the concentration at which binding is half-saturated. Low readings indicate tighter binding, high ones weaker binding. For `CN(C)CCCN1c2ccccc2Sc2ccc(Cl)cc21` [CPZ, chlorpromazine], the Kd in test [1] was over 100 µM; in test [2], 421 µM.
